In patent US20220370416A1, “COMPOUNDS AND METHODS FOR TARGETED DEGRADATION OF KRAS” (Arvinas Operations, Inc., priority 2020, published 2022):

What was measured:
HiBit-KRAS^G12C [1] = target: T1, HiBit-KRAS^G12C (Homo sapiens, UniProt P01116, G12C); assay: HiBit degradation assay in SW1573 HiBit-KRas^G12C cells; assay type: cell-based; design: expressed in transfected cells; host or cells: SW1573 (clone E6), modified pcDNA3.1 vector, TK promoter; conditions: 24 hours
Method in brief: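 HiBit-KRAS G12C degradation was measured after a 24 h compound exposure (titrated 10 μM–20 nM) in engineered SW1573 cells. Lytic HiBit luminescence, expressed relative to DMSO controls, yielded DC50 and Dmax from 4-parameter fits. Concentrations causing ≥50% loss in alamar blue viability were omitted as cytotoxic.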

HiBit-KRAS^G12C [2] = target: T1, HiBit-KRAS^G12C; assay: HiBit degradation assay in MiaPaCa-2 HiBit-KRas^G12C cells; assay type: cell-based; conditions: 24 hours; for KRas^G12C-HiBiT (MiaPaCa; 0.1% DMSO) DMax / KRas^G12C-HiBiT (MiaPaCa; 0.5% DMSO) DMax / Dmax: maximum degradation; for DC50: read-out: KRas^G12C-HiBiT (MiaPaCa; 0.5% DMSO) IC50
Method in brief: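 DC50 and Dmax come from 4-parameter fits of DMSO-normalized HiBit luminescence after 24 hours' exposure at 37° C to 10 μM–20 nM compound in 0.1% or 0.5% DMSO. Cells: MiaPaCa-2 carrying one endogenously HiBit-tagged KRAS^G12C allele; concentrations causing ≥50% […] viability loss (alamar blue) excluded.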

[3] = SW1573 HiBit-KRas^G12C, 0.1% DMSO
[4] = SW1573 HiBit-KRas^G12C, 0.1% DMSO, read-out: KRas^G12C-HIBit (SW1573; 0.1% DMSO) DC50*
[5] = MiaPaCa-2 HiBit-KRas^G12C cells, 0.1% DMSO
[6] = MiaPaCa-2 HiBit-KRas^G12C cells, 0.5% DMSO
[7] = SW1573, SW1573 HiBit-KRas^G12C, 0.5% DMSO, read-out: KRas^G12C-HiBiT (SW1573; 0.5% DMSO) Dmax**
[8] = MIA PaCa-2, MiaPaCa-2 HiBit-KRas^G12C cells, 0.5% DMSO, read-out: KRas^G12C-HiBiT (MiaPaCa; 0.5% DMSO) DMax
[9] = read-out: KRas^G12C-HiBiT (SW1573; 0.5% DMSO) IC50***, SW1573 HiBit-KRas^G12C, 0.5% DMSO

T1 sequence (P01116 1-186 isoform P01116-2 G12C limits assumed): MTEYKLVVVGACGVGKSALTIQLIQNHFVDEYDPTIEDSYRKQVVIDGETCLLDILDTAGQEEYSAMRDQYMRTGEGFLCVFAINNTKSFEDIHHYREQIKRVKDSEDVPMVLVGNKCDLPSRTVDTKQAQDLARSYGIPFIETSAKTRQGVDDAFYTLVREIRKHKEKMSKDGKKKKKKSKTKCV

Which results are given for `C=CC(=O)N1CCN(c2nc(OCCN3CCC(OCCOc4cc([C@H](C(=O)N5C[C@H](O)C[C@H]5C(=O)N[C@@H](C)c5ccc(-c6scnc6C)cc5)C(C)C)on4)CC3)nc3c(F)c(-c4cc(O)cc5ccccc45)c(Cl)cc23)C[C@@H]1CC#N` (atropisomer, axis not shown) [Compound 4, (2S,4R)-1-((R)-2-(3-(2-((1-(2-(((R)-4-((S)-4-acryloyl-3-(cyanomethyl)piperazin-1-yl)-6-chloro-8-fluoro-7-(3-hydroxynaphthalen-1-yl)quinazolin-2-yl)oxy)ethyl)piperidin-4-yl)oxy)ethoxy)isoxazol-5-yl)-3-methylbutanoyl)-4-hydroxy-N-((S)-1-(4-(4-methylthiazol-5-yl)phenyl)ethyl)pyrrolidine-2-carboxamide]?
KRas^G12C-HiBit (SW1573; 0.1% DMSO) Dmax** (HiBit-KRAS^G12C [1]; [3]): B (35 < B < 70); DC50 (HiBit-KRAS^G12C [1]; [4]): 100 to 1000 nM; KRas^G12C-HiBiT (MiaPaCa; 0.1% DMSO) DMax (HiBit-KRAS^G12C [2]; [5]): C (C ≤ 35); KRas^G12C-HiBiT (MiaPaCa; 0.5% DMSO) DMax (HiBit-KRAS^G12C [2]; [6]): B (35 < B < 70)

What does the source list for `C=CC(=O)N1CCN(c2nc(O[C@H](C)CN3CCC(OCCOCC(=O)N[C@H](C(=O)N4C[C@H](O)C[C@H]4C(=O)N[C@@H](C)c4ccc(-c5scnc5C)cc4)C(C)(C)C)CC3)nc3c(F)c(-c4cc(O)cc5ccccc45)c(Cl)cc23)C[C@@H]1CC#N` [Compound 33, (2S,4R)-1-[(2S)-2-{2-[2-({1-[(2R)-2-({6-chloro-4-[(3S)-3-(cyanomethyl)-4-(prop-2-enoyl)piperazin-1-yl]-8-fluoro-7-(3-hydroxynaphthalen-1-yl)quinazolin-2-yl}oxy)propyl]piperidin-4-yl}oxy)ethoxy]acetamido}-3,3-dimethylbutanoyl]-4-hydroxy-N-[(1S)-1-[4-(4-methyl-1,3-thiazol-5-yl)phenyl]ethyl]pyrrolidine-2-carboxamide]?
Dmax (HiBit-KRAS^G12C [1]; SW1573, SW1573 HiBit-KRas^G12C, 0.1% DMSO, read-out: KRas^G12C-HiBit (SW1573; 0.1% DMSO) Dmax**): 35 to 70%; Dmax (HiBit-KRAS^G12C [1]; [7]): 35 to 70%; DC50 (HiBit-KRAS^G12C [1]; [4]): 100 to 1000 nM; Dmax (HiBit-KRAS^G12C [2]; MIA PaCa-2, MiaPaCa-2 HiBit-KRas^G12C cells, 0.1% DMSO, read-out: KRas^G12C-HiBiT (MiaPaCa; 0.1% DMSO) DMax): 35 to 70%; Dmax (HiBit-KRAS^G12C [2]; [8]): 35 to 70%

How did the Dmax (HiBit-KRAS^G12C [1]; SW1573, read-out: KRas^G12C-HiBiT (SW1573; 0.5% DMSO) Dmax**, SW1573 HiBit-KRas^G12C, 0.5% DMSO) turn out when `C=CC(=O)N1CCN(c2nc(O[C@@H]3CCC[C@H]3N3CCC(COCC(=O)N[C@H](C(=O)N4C[C@H](O)C[C@H]4C(=O)N[C@@H](C)c4ccc(-c5scnc5C)cc4)C(C)(C)C)CC3)nc3c(F)c(-c4cc(O)cc5ccccc45)c(Cl)cc23)CC1` [Compound 13, (2S,4R)-1-[(2S)-2-[2-({1-[(1R,2R)-2-{[6-chloro-8-fluoro-7-(3-hydroxynaphthalen-1-yl)-4-[4-(prop-2-enoyl)piperazin-1-yl]quinazolin-2-yl]oxy}cyclopentyl]piperidin-4-yl}methoxy)acetamido]-3,3-dimethylbutanoyl]-4-hydroxy-N-[(1S)-1-[4-(4-methyl-1,3-thiazol-5-yl)phenyl]ethyl]pyrrolidine-2-carboxamide] was run?
The Dmax was 35 to 70%.

What about the Dmax (HiBit-KRAS^G12C [1]; SW1573, read-out: KRas^G12C-HiBit (SW1573; 0.1% DMSO) Dmax**, SW1573 HiBit-KRas^G12C, 0.1% DMSO) of the same compound?
The Dmax was 35 to 70%.

What about the DC50 (HiBit-KRAS^G12C [1]; [4]) of the same compound?
The DC50 was 100 to 1000 nM.

And the Dmax (HiBit-KRAS^G12C [2]; MIA PaCa-2, read-out: KRas^G12C-HiBiT (MiaPaCa; 0.1% DMSO) DMax, MiaPaCa-2 HiBit-KRas^G12C cells, 0.1% DMSO)?
Its Dmax is 35 to 70%.

What about the Dmax (HiBit-KRAS^G12C [2]; MIA PaCa-2, read-out: KRas^G12C-HiBiT (MiaPaCa; 0.5% DMSO) DMax, MiaPaCa-2 HiBit-KRas^G12C cells, 0.5% DMSO) of the same compound?
The Dmax was 35 to 70%.

`C=C(F)C(=O)N1CCN(c2nc(OCCN3CCC(C)(COc4cc([C@@H](C(=O)N5C[C@H](O)C[C@H]5C(=O)N[C@@H](C)c5ccc(-c6scnc6C)cc5)C(C)C)on4)CC3)nc3c(F)c(-c4cc(O)cc5ccccc45)c(Cl)cc23)C[C@@H]1CC#N` (atropisomer, axis not shown) [Compound 126, (2S,4R)-1-[(2S)-2-[3-({1-[2-({6-chloro-4-[(3S)-3-(cyanomethyl)-4-(2-fluoroprop-2-enoyl)piperazin-1-yl]-8-fluoro-7-(3-hydroxynaphthalen-1-yl)quinazolin-2-yl}oxy)ethyl]-4-methylpiperidin-4-yl}methoxy)-1,2-oxazol-5-yl]-3-methylbutanoyl]-4-hydroxy-N-[(1S)-1-[4-(4-methyl-1,3-thiazol-5-yl)phenyl]ethyl]pyrrolidine-2-carboxamide] was tested. Which DC50 (HiBit-KRAS^G12C [1]; [9]) did it give?
Its DC50 is greater than 1000 nM.

And the DC50 (HiBit-KRAS^G12C [2]; [6])?
The DC50 was greater than 1000 nM.

Which results are given for `C=CC(=O)N1CCN(c2nc(OCCN3CCC(OCCOc4cc([C@H](C(=O)N5C[C@H](O)C[C@H]5C(=O)N[C@@H](C)c5ccc(-c6scnc6C)cc5)C(C)C)on4)CC3)nc3c(F)c(-c4cc(O)cc5ccccc45)c(Cl)cc23)C[C@@H]1CC#N` (atropisomer, axis not shown) [Compound 3, (2S,4R)-1-((R)-2-(3-(2-((1-(2-(((S)-4-((S)-4-acryloyl-3-(cyanomethyl)piperazin-1-yl)-6-chloro-8-fluoro-7-(3-hydroxynaphthalen-1-yl)quinazolin-2-yl)oxy)ethyl)piperidin-4-yl)oxy)ethoxy)isoxazol-5-yl)-3-methylbutanoyl)-4-hydroxy-N-((S)-1-(4-(4-methylthiazol-5-yl)phenyl)ethyl)pyrrolidine-2-carboxamide]?
KRas^G12C-HiBit (SW1573; 0.1% DMSO) Dmax** (HiBit-KRAS^G12C [1]; [3]): A (A ≥ 70); DC50 (HiBit-KRAS^G12C [1]; [4]): < 100 nM; KRas^G12C-HiBiT (MiaPaCa; 0.1% DMSO) DMax (HiBit-KRAS^G12C [2]; [5]): A (A ≥ 70); KRas^G12C-HiBiT (MiaPaCa; 0.5% DMSO) DMax (HiBit-KRAS^G12C [2]; [6]): A (A ≥ 70)

With `C=CC(=O)N1CCN(c2nc(OCCN3CCC(F)(COc4cc([C@H](C(=O)N5C[C@H](O)C[C@H]5C(=O)N[C@@H](C)c5ccc(-c6scnc6C)cc5)C(C)C)on4)CC3)nc3c(F)c(-c4cc(O)cc5ccccc45)c(Cl)cc23)C[C@@H]1CC#N` [Compound 133, (2S,4R)-1-[(2R)-2-[3-({1-[2-({6-chloro-4-[(3S)-3-(cyanomethyl)-4-(prop-2-enoyl)piperazin-1-yl]-8-fluoro-7-(3-hydroxynaphthalen-1-yl)quinazolin-2-yl}oxy)ethyl]-4-fluoropiperidin-4-yl}methoxy)-1,2-oxazol-5-yl]-3-methylbutanoyl]-4-hydroxy-N-[(1S)-1-[4-(4-methyl-1,3-thiazol-5-yl)phenyl]ethyl]pyrrolidine-2-carboxamide] as the compound, how does the Dmax (HiBit-KRAS^G12C [1]; [7]) read?
The Dmax was greater than 70%.

What about the DC50 (HiBit-KRAS^G12C [1]; [9]) of the same compound?
Its DC50 is less than 100 nM.

What about the Dmax (HiBit-KRAS^G12C [2]; [8]) of the same compound?
Its Dmax is greater than 70%.

And the DC50 (HiBit-KRAS^G12C [2]; [6])?
Its DC50 is 100 to 1000 nM.

With `C=CC(=O)N1CCN(c2nc(OCCN3CCC(COCC(=O)N[C@H](C(=O)N4C[C@H](O)C[C@H]4C(=O)N[C@@H](C)c4ccc(-c5scnc5C)cc4)C(C)(C)C)CC3)nc3c(F)c(-c4cc(O)cc(C)c4C)c(Cl)cc23)C[C@@H]1CC#N` [Compound 102, (2S,4R)-1-[(2S)-2-[2-({1-[2-({6-chloro-4-[(3S)-3-(cyanomethyl)-4-(prop-2-enoyl)piperazin-1-yl]-8-fluoro-7-(5-hydroxy-2,3-dimethylphenyl)quinazolin-2-yl}oxy)ethyl]piperidin-4-yl}methoxy)acetamido]-3,3-dimethylbutanoyl]-4-hydroxy-N-[(1S)-1-[4-(4-methyl-1,3-thiazol-5-yl)phenyl]ethyl]pyrrolidine-2-carboxamide] as the compound, how does the Dmax (HiBit-KRAS^G12C [1]; [7]) read?
Its Dmax is greater than 70%.

And the DC50 (HiBit-KRAS^G12C [1]; [9])?
Its DC50 is 100 to 1000 nM.

What about the Dmax (HiBit-KRAS^G12C [2]; [8]) of the same compound?
Its Dmax is greater than 70%.

What about the DC50 (HiBit-KRAS^G12C [2]; [6]) of the same compound?
Its DC50 is 100 to 1000 nM.

How did the DC50 (HiBit-KRAS^G12C [1]; [9]) turn out when `C=CC(=O)N1CCN(c2nc(OCCN3CCC(COc4cc([C@@H](C(=O)N5C[C@H](O)C[C@H]5C(=O)N[C@@H](C)c5ccc(-c6scnc6C)cc5)C(C)C)on4)CC3)nc3c(F)c(-c4cc(O)cc5ccccc45)c(Cl)cc23)C[C@@H]1CC#N` [Compound 172, (2S,4R)-1-[(2S)-2-[3-({1-[2-({6-chloro-4-[(3S)-3-(cyanomethyl)-4-(prop-2-enoyl)piperazin-1-yl]-8-fluoro-7-(3-hydroxynaphthalen-1-yl)quinazolin-2-yl}oxy)ethyl]piperidin-4-yl}methoxy)-1,2-oxazol-5-yl]-3-methylbutanoyl]-4-hydroxy-N-[(1S)-1-[4-(4-methyl-1,3-thiazol-5-yl)phenyl]ethyl]pyrrolidine-2-carboxamide] was run?
Its DC50 is greater than 1000 nM.

What about the DC50 (HiBit-KRAS^G12C [2]; [6]) of the same compound?
Its DC50 is greater than 1000 nM.
